Literature values as cited in US11919851B2, “Method for producing polyol-based esters of optionally acylated hydroxycarboxylic acids” (IOI Oleo GmbH, priority 2019, dated 2024).

Details: free acid and its salts; prior art statement

SMILES: CC(O)CC(=O)O (stereo not shown) [3-hydroxybutyric acid]
- adverse effects on oral administration: can cause severe vomiting and nausea
